The results in this text go back to US6900206B2, “Indole, azaindole and related heterocyclic sulfonylureido piperazine derivatives” (priority 2002, dated 2005).

The subject of this experiment is HIV-1 single-round infectious reporter virus. Nature of the experiment: microbe, parasite or virus in culture. Format: cell-based. As to conditions: Human immunodeficiency virus 1, HeLa, 72 h, read-out: EC50 Group from Table 1. Here is the method:
• Virus production—Human embryonic Kidney cell line, 293T, was propagated in Dulbecco's Modified Eagle Medium (Invitrogen, Carlsbad, Calif.) containing 10% fetal Bovine serum (FBS, Sigma, St. Louis, Mo.). • Virus infection—Human epithelial cell line, HeLa, expressing the HIV-1 receptor CD4 was propagated in Dulbecco's Modified Eagle Medium (Invitrogen, Carlsbad, Calif.) containing 10% fetal Bovine serum (FBS, Sigma, St. Louis, Mo.) and supplemented with 0.2 mg/mL Geneticin (Invitrogen, Carlsbad, Calif.). Virus—Single-round infectious reporter virus was produced by co-transfecting human embryonic Kidney 293 cells with an HIV-1 envelope DNA expression vector and a proviral cDNA containing an envelope deletion mutation and the luciferase reporter gene inserted in place of HIV-1 nef sequences (Chen et al, Ref. 41). Transfections were performed using lipofectAMINE PLUS reagent as described by the manufacturer (Invitrogen, Carlsbad, Calif.). Experiment • 1. HeLa CD4 cells were plated in 96 well plates at a cell density of 1×10^4 cells per well in 100 μl Dulbecco's Modified Eagle Medium containing 10% fetal Bovine serum and incubated overnight. • 2. Compound was added in a 2 μl dimethylsulfoxide solution, so that the final assay concentration would be ≦10 μM. • 3. 100 μl of single-round infectious reporter virus in Dulbecco's Modified Eagle Medium was then added to the plated cells and compound at an approximate multiplicity of infection (MOI) of 0.01, resulting in a final volume of 200 μl per well. • 4. Virally-infected cells were incubated at 37 degrees Celsius, in a CO2 incubator, and harvested 72 h after infection. • 5. Viral infection was monitored by measuring luciferase expression from viral DNA in the infected cells using a luciferase reporter gene assay kit, as described by the manufacturer (Roche Molecular Biochemicals, Indianapolis, Ind.). Infected cell supernatants were removed and 50 μl of lysis buffer was added per well. After 15 minutes, 50 μl of freshly-reconstituted luciferase assay reagent was added per well. Luciferase activity was then quantified by measuring luminescence using a Wallac microbeta scintillation counter. • 6. […] An EC50 provides a method for comparing the antiviral potency of the compounds of this invention. The effective concentration for fifty percent inhibition (EC50) was calculated with the Microsoft Excel Xlfit curve fitting software. For each compound, curves were generated from percent inhibition calculated at 10 different concentrations by using a four paramenter logistic model (model 205). Table 1 is the key for the data in Table 2. Results
Broadly, the EC50 is the concentration at which the effect is half-maximal. `CNC(=O)c1ccc(F)c2c(C(=O)C(=O)N3CCN(S(=O)(=O)N(C)C)CC3)c[nH]c12` [Example 1]: the EC50 is less than 1 µM.

For `CNC(=O)c1ccc(F)c2c(C(=O)C(=O)N3CCN(S(=O)(=O)Nc4ccccc4)CC3)c[nH]c12` [Example 2], the EC50 was in the range of 1 to 5 µM.

In the case of `CNC(=O)c1ccc(F)c2c(C(=O)C(=O)N3CCN(S(=O)(=O)N4CCOCC4)CC3)c[nH]c12` [Example 3], the 50% effective concentration (EC50) is greater than 5 µM.

As for `CNC(=O)c1ccc(F)c2c(C(=O)C(=O)N3CCN(S(=O)(=O)NC)CC3)c[nH]c12` [Example 4], the EC50 is greater than 5 µM.

As to `COC(=O)c1ccc(F)c2c(C(=O)C(=O)N3CCN(S(=O)(=O)N(C)C)CC3)c[nH]c12` [Example 5], the EC50 is greater than 5 µM.

In the case of `COC(=O)c1ccc(F)c2c(C(=O)C(=O)N3CCN(S(=O)(=O)N4CCC4)CC3)c[nH]c12` [Example 6], the EC50 was greater than 5 µM.

For the molecule `COC(=O)c1ccc(F)c2c(C(=O)C(=O)N3CCN(S(=O)(=O)N4CCCCC4)CC3)c[nH]c12` [Example 7], the EC50 lay within 1 to 5 µM.

For the molecule `CCN(CC)S(=O)(=O)N1CCN(C(=O)C(=O)c2c[nH]c3c(C(=O)OC)ccc(F)c23)CC1` [Example 8], the EC50 lay in the range of 1 to 5 µM.

Take `CNC(=O)c1ccc(F)c2c(C(=O)C(=O)N3CCN(S(=O)(=O)N4CCCCC4)CC3)c[nH]c12` [Example 9]: the EC50 was in the range of 1 to 5 µM.

In the case of `CNC(=O)c1ccc(F)c2c(C(=O)C(=O)N3CCN(S(=O)(=O)N4CCC4)CC3)c[nH]c12` [Example 10], the EC50 is greater than 5 µM.

Consider `CCN(CC)S(=O)(=O)N1CCN(C(=O)C(=O)c2c[nH]c3c(C(=O)NC)ccc(F)c23)CC1` [Example 11], for which the EC50 was 1 to 5 µM.

For the molecule `CN(C)S(=O)(=O)N1CCN(C(=O)C(=O)c2c[nH]c3c(-n4cncn4)ncc(F)c23)CC1` [Example 12], the EC50 was less than 1 µM.
